“Also recorded” adds a separate entry of the source.
How the values were obtained:
FGF receptors = assay: dimerization of FGF receptors on BaF3-FGFR1 cells by crosslinking; assay type: cell-based; conditions: BaF3-FGFR1 cells with FGF-2
Protocol: Binding media (DMEM/0.1% BSA) was supplemented with the indicated concentration of heparin or Tri-3.(*) 200 ng/ml unlabeled FGF-2 added to binding media; Cells were washed once with the same media used for binding, and once with PBS. Crosslinking was as described previously (27).
Crosslinked receptors were electrophoresed on a 5% SDS polyacrylamide gel under reducing condition, and visualized by autoradiography. The lower band corresponds to receptor monomers crosslinked to FGF-2. The upper band corresponds to receptor dimers crosslinked to each other and to FGF-2. Molecular weights (kD) are shown at the right.
Binding media (DMEM/0.1% BSA) was supplemented with the indicated concentration of heparin or Tri-3.(*) 200 ng/ml unlabeled FGF-2 added to binding media; Cells were washed once with the same media used for binding, and once with PBS. Crosslinking was as described previously
Crosslinked receptors were electrophoresed on a 5% SDS polyacrylamide gel under reducing condition, and visualized by autoradiography. The lower band corresponds to receptor monomers crosslinked to FGF-2. The upper band corresponds to receptor dimers crosslinked to each other and to FGF-2.

aFGF = assay: competition with 125I-heparin binding to aFGF
Protocol: (§1) The ability of these small oligosaccharides to compete with the binding on ^125 I-heparin to FGF was also assayed. Heparin iodination was carried out by previously published procedure (30). Heparin binding to FGF was determined by incubating 4 nM FGF with ^125 I-heparin and competitor polysaccharide. Complexes were immunoprecipitated with 1:250 dilutions of monoclonal antibody DG2 (DuPont/Merck) (for bFGF) or a polyclonal antibody (for aFGF), and protein A SEPHAROSE (Sigma Chemical Co.). Washing and quantitation was carried out by procedures previously published for soluble receptor-binding assays (3).
(§2) 12. Heparin iodination was as in (30). Heparin binding to FGF was determined by incubating 4 nM FGF with ^125 I-heparin and competitor polysaccharide. Complexes were immunopredpitated with 1:250 dilutions of monoclonal antibody DG2 (for bFGF) or a polydonal antibody (for aFGF), and protein A sepharose (Sigma). Washing and quantitation was as previously described for soluble receptor binding assays (3).

aFGF binding to FRAP = assay: binding of 125I-aFGF to soluble receptor FRAP in presence of oligosaccharide; conditions: increasing concentrations
Protocol: (§3) FIG. 2C: Acidic FGF binding to FRAP; FIG. 2D:, basic FGF binding to FRAP. ^125 I-FGFs were incubated with FRAP in the presence of increasing concentrations of heparin or Tri-3; Binding assays were performed as previously described (3).
(§4) The FGFR1-expressing BaF3 cell line was used to assay synthetic heparin/HS molecules as potential activators or inhibitors of heparin/HS-dependent mitogenesis by an assay procedure published previously (3). Such cell lines, which express FGRF1, require heparin/HS and FGF for growth (3). […]

[1] = tested on: FGFR1-expressing BaF3 cells; assay: bFGF mitogenic activity, 3H-thymidine incorporation into FGFR1-expressing BaF3 cells; assay type: cell-based; conditions: for mitogenic activity with bFGF (in words): FGFR1-expressing BaF3 cells; for Mitogenic activity: relative concentration (wt/vol.) required to incorporate 2 × 10^4 cpm 3H-thymidine into F32 cell DNA: relative to heparin (1.0), ± standard deviation; for mitogenic activity with bFGF (in words) / Mitogenic activity: relative concentration (wt/vol.) required to incorporate 2 × 10^4 cpm 3H-thymidine into F32 cell DNA: bFGF; for fold more active than SOS: FGFR1-expressing BaF3 cell growth with bFGF
Source text: This cell line was used to assay synthetic heparin/HS molecules as potential activators or inhibitors of heparin/HS-dependent mitogenesis (3).

bFGF-FRAP binding = assay: binding of 125I-bFGF to soluble receptor FRAP in presence of oligosaccharide; conditions: oligosaccharides 2 μg/ml or increasing concentrations
Protocol: FIG. 2B: Binding of ^125 I-bFGF to FRAP (3), a soluble receptor, in the presence of the indicated oligosaccharide: *, no heparin added; heparin, 50 ng/ml; the remaining oligosaccharides (Di-1 to SOS) were added at a concentration of 2 μg/ml. FGFs were labeled by the Chloramine T method as previously described (31).
as §3, §4
Binding of bFGF to a soluble FGFR-alkaline phosphatase fusion protein (FRAP) or to a cell-surface FGFR is enhanced by heparin/HS or by heparin-derived oligosaccharides (8 to 12 sugar residues) (3,4). The ability of heparin/HS-derived di- and tri-saccharides to enhance FGF-FRAP binding in vitro was measured (3).

bFGF [2] = molecular target: T1, bFGF (Homo sapiens, UniProt P09038); assay: competition with 125I-heparin binding to bFGF; conditions: for IC50: 4 nM FGF, read-out: IC50 (50% competition for 125I-heparin binding to bFGF) (converted); for binding to bFGF/FGF (in words): competition with 125I-heparin
T1 construct: purchased Scios Nova
Protocol: FIG. 2A: Binding of oligosaccharides to bFGF as determined by competition with ^125 I-heparin (30).
as §1, §2

bFGF [3] = molecular target: T1, bFGF; assay: bFGF dimerization by crosslinking and electrophoresis; assay type: biochemical; conditions: for induction of FGF dimers (in words): crosslinking
Protocol: 670 nM bFGF and 3×10^5 cpm ^125 I-bFGF were incubated with the indicated concentration of (μg/ml) Tri-3 or HS-16. Crosslinking and electrophoresis were performed as previously described (3). Dimer (45 kD) band intensities were quantified by scanning densitometry and plotted above each lane. Molecular weight markers (kD) are shown at the right.

[4] = tested on: FGFR1-expressing BaF3 cells; assay: aFGF mitogenic activity, 3H-thymidine incorporation into FGFR1-expressing BaF3 cells; assay type: cell-based
Source text: Activation of bFGF mitogenic activity as measured by ^3 H-thymidine incorporation into FGFR1-expressing BaF3 cells treated with 150 pM bFGF and increasing concentrations of the indicated oligosaccharides is shown. FIG. 1B.
as §4
However, their potency relative to that of heparin is less than that observed with bFGF (FIG. 1B).

T1 sequence (P09038 134-288): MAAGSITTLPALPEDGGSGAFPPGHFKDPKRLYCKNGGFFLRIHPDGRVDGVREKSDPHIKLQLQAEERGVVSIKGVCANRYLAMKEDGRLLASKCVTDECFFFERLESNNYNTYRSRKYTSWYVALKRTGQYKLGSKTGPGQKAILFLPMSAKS

Row | binding to aFGF (in words) (aFGF) | IC50 (bFGF [2]) [µM] | binding to bFGF/FGF (in words) (bFGF [2]) | optimal concentration for dimerization activity (bFGF [3]; 670 nM bFGF) [µg/mL] | Structure (SMILES) | dimerization of FGF receptors (in words) (FGF receptors) | aFGF binding to FRAP (in words) (aFGF binding to FRAP) | mitogenic activity with bFGF (in words) [1] | Mitogenic activity: relative concentration (wt/vol.) required to incorporate 2 × 10^4 cpm 3H-thymidine into F32 cell DNA [1] | enhancement of bFGF-FRAP binding (in words) (bFGF-FRAP binding) | induction of FGF dimers (in words) (bFGF [3]) | proliferation of FGFR1-expressing BaF3 cells in the presence of aFGF (in words) [4] | fold more active than SOS [1] [fold] | mitogenic activity with bFGF (in words) ([1]; listed as D-4) | mitogenic activity with bFGF (in words) ([1]; listed as D-3)
1 | – | – | – | – | CO[C@H]1O[C@H](CO)[C@@H](O[C@@H]2O[C@@H](C(=O)O)[C@@H](O)[C@H](O)[C@H]2O)[C@H](O)[C@H]1NC(C)=O [Di-1, α-L-IdoA-(1→4)-α-D-GlcNAc-1→OMe] | – | – | no activity | – | – | – | – | – | – | –
2 | – | – | affinity less than that of SOS | – | CO[C@@H]1O[C@H](C(=O)O)[C@@H](O[C@H]2O[C@H](CO)[C@@H](O[C@@H]3O[C@@H](C(=O)O)[C@@H](O)[C@H](O)[C@H]3O)[C@H](O)[C@H]2NS(=O)(=O)O)[C@H](O)[C@H]1O [Tri-2, α-L-IdoA-(1→4)-α-D-GlcNSO3 -(1→4)-β-D-GlcA-1→OMe] | – | – | intermediate mitogenic activity; also recorded: lack of activity | 470.6 ± 25.6 | – | – | – | – | – | –
3 | – | – | – | – | CO[C@@H]1O[C@H](C(=O)O)[C@@H](O[C@H]2O[C@H](CO)[C@@H](O)[C@H](O)[C@H]2NC(C)=O)[C@H](O)[C@H]1O [Di-5, D-GlcNAc-(1→4)-β-D-GlcA-1→OMe] | – | – | intermediate mitogenic activity | 463.6 | – | – | – | – | – | –
4 | bind | – | bind | – | CO[C@H]1O[C@H](CO)[C@@H](O[C@@H]2O[C@H](C(=O)O)[C@@H](O)[C@H](O)[C@H]2O)[C@H](O)[C@H]1NS(=O)(=O)O [Di-4, β-D-GlcA-(1→4)-α-D-GlcNSO3 -1→OMe] | – | – | intermediate mitogenic activity | 24.7 | enhance bFGF-FRAP binding | – | – | 55 | the most active of the disaccharides | –
5 | bind | 94.6 | bind | – | O=S(=O)(O)OC[C@H]1O[C@@](COS(=O)(=O)O)(O[C@H]2O[C@H](COS(=O)(=O)O)[C@@H](OS(=O)(=O)O)[C@H](OS(=O)(=O)O)[C@H]2OS(=O)(=O)O)[C@@H](OS(=O)(=O)O)[C@@H]1OS(=O)(=O)O [SOS, sucrose octasulfate, reference compound] | – | – | minimal biological activity | 1380.8 ± 30.6 | – | – | – | – | – | –
6 | bind | – | bind | – | CO[C@H]1O[C@H](CO)[C@@H](O[C@@H]2O[C@H](C(=O)O)[C@@H](O)[C@H](O)[C@H]2O)[C@H](O)[C@H]1NC(C)=O [Di-3, β-D-GlcA-(1→4)-α-D-GlcNAc-1→OMe] | – | – | intermediate mitogenic activity | 26.0 | enhance bFGF-FRAP binding | induce FGF dimers as well as higher order oligomers | – | 55 | – | the most active of the disaccharides
7 | – | – | affinity less than that of SOS | – | CO[C@H]1O[C@H](CO)[C@@H](O[C@@H]2O[C@@H](C(=O)O)[C@@H](O)[C@H](O)[C@H]2O)[C@H](O)[C@H]1NS(=O)(=O)O [Di-2, α-L-IdoA-(1→4)-α-D-GlcNSO3 -1→OMe] | – | – | intermediate mitogenic activity; also recorded: higher than expected mitogenic activity | 69.5 ± 9.6 | – | – | – | – | – | –

Row | Structure (SMILES) | binding to aFGF (in words) (aFGF) | IC50 (bFGF [2]) [µM] | binding to bFGF/FGF (in words) (bFGF [2]) | optimal concentration for dimerization activity (bFGF [3]; 670 nM bFGF) [µg/mL] | dimerization of FGF receptors (in words) (FGF receptors) | aFGF binding to FRAP (in words) (aFGF binding to FRAP) | mitogenic activity with bFGF (in words) [1] | Mitogenic activity: relative concentration (wt/vol.) required to incorporate 2 × 10^4 cpm 3H-thymidine into F32 cell DNA [1] | enhancement of bFGF-FRAP binding (in words) (bFGF-FRAP binding) | induction of FGF dimers (in words) (bFGF [3]) | proliferation of FGFR1-expressing BaF3 cells in the presence of aFGF (in words) [4] | fold more active than SOS [1] [fold] | mitogenic activity with bFGF (in words) ([1]; listed as D-4) | mitogenic activity with bFGF (in words) ([1]; listed as D-3)
8 | CO[C@@H]1O[C@H](C(=O)O)[C@@H](O[C@H]2O[C@H](CO)[C@@H](O[C@@H]3O[C@@H](C(=O)O)[C@@H](O)[C@H](O)[C@H]3O)[C@H](O)[C@H]2NC(C)=O)[C@H](O)[C@H]1O [Tri-3, α-L-IdoA-(1→4)-α-D-GlcNAc-(1→4)-β-D-GlcA-1→OMe] | bind | 9.87 | bind and affinity higher than that of SOS | 35 | dimerization of FGF receptors induced | increases in a dose-dependent manner | active at concentrations comparable to that of heparin; also recorded: higher than expected mitogenic activity; also recorded: the most active compound tested | 3.2 | enhance bFGF-FRAP binding; also recorded: increases in a dose-dependent manner; also recorded: reproducibly exceeds that with heparin | induce FGF dimers as well as higher order oligomers | stimulate the proliferation | – | – | –
9 | CO[C@@H]1O[C@H](C(=O)O)[C@@H](O[C@H]2O[C@H](CO)[C@@H](O[C@@H]3O[C@H](C(=O)O)[C@@H](O)[C@H](O)[C@H]3O)[C@H](O)[C@H]2NC(C)=O)[C@H](O)[C@H]1O [Tri-1, β-D-GlcA-(1→4)-α-D-GlcNAc-(1→4)-β-D-GlcA-1→OMe] | bind | 19.9 | bind and affinity higher than that of SOS | – | – | – | active at concentrations comparable to that of heparin; also recorded: higher than expected mitogenic activity | 1.2 ± 0.2 | inability of Tri-1 to enhance FGF-FRAP binding | – | stimulate the proliferation | – | – | –

Reference: patent US5733893A, “Method of identifying molecules that regulate FGF activity” (Washington University, priority 1995, dated 1998)
